Legend:
[1] = molecular target: T1, HLA-B*0702 (Homo sapiens, UniProt P01889); assay: Measurement of peptide relative affinity to HLA-B*0702 (T2-B7 cells, ME-1 mAb staining); assay type: binding
T1 construct: expressed in transfected cells; host or cells: human T2 cells transfected with HLA-B*0702 (T2-B7)
Description: The affinity of a peptide for HLA-B*0702 can be determined by methods known in the art, for instance by the assay described by Rohrlich et al., 2003. Results are expressed as relative affinity (RA) when compared to a reference peptide. […] Peptides with RA greater than 10 are therefore considered to be cryptic peptides (or epitopes).
Measurement of Peptide Relative Affinity to HLA-B*0702. The protocol used has been described previously (Rohrlich et al., 2003). Briefly, T2-B7 cells were incubated at 37° C. for 16 hours with peptides concentrations ranging from 100 μM to 0.1 μM, and then stained with ME-1 monoclonal antibody (mAb) to quantify the surface expression of HLA-B*0702. For each peptide concentration, the HLA-B*0702 specific staining was calculated as the percentage of staining obtained with 100 μM of the reference peptide CMV265-274 (R10V; […], SEQ ID NO: 9). The relative affinity (RA) was determined as: RA=(Concentration of each peptide that induces 20% of HLA-B*0702-expression/Concentration of the reference peptide that induces 20% of HLA-B*0702 expression).

[2] = system: HLA-B*0702 transgenic mice; assay: CTL induction in vivo in HLA-B*0702 transgenic mice (immunogenicity, cytotoxic assay on peptide-loaded RMA-B7 targets); design: key to Corresponding native peptide cross-reconnaissance: + for immunogenicity or native peptide cross recognition means that the peptide induced a specific response in at least one HLA-B*0702 transgenic mouse, able to recognized the corresponding native peptide
Description: (§1) CTL Induction in vivo in HLA-B*0702 Transgenic Mice. Mice were injected subcutaneously with 100 μg of peptide emulsified in Incomplete Freund's Adjuvant (IFA) in the presence of 150 μg of the I-A^b restricted HBVcore128 T helper epitope ([…], SEQ ID NO: 10). After 11 days, 5×10^7 spleen cells were stimulated in vitro with peptide (10 μM). On day 6 of culture, the bulk responder populations were tested for specific cytotoxicity.
(§2) Cytotoxic assay. Targets were labelled with 100 μCi of Cr^51 for 60 min, plated in 96-well V-bottomed plates (3×10^3 cell/well in 100 μL of RPMI 1640 medium) and, when necessary, pulsed with peptides (1 μM) at 37° C. for 2 hours. Effectors were then added in the wells and incubated at 37° C. for 4 hours. Percentage of specific lysis was determined as: % Lysis=(Experimental Release−Spontaneous Release)/(Maximal Release−Spontaneous Release)×100.
(§3) HLA-B7 transgenic mice were vaccinated with the selected peptides, and eleven days later, their spleen cells were in vitro stimulated with the peptide.

[3] = system: COS-7 cells transfected with HLA-B*0702 and TERT; assay: Peptide processing assay on COS-7 transfected cells (TNFα secretion by murine CTL); assay type: cell-based, simian; details: COS-7 cells transfected with HLA-B*0702 and/or TERT
Description: Peptide Processing Assay on COS-7 Transfected Cells. 2.2×10^4 simian COS-7 cells were plated in flat-bottomed 96-well plates in DMEM+10% FCS, in triplicate for each condition. Eighteen hours later, cells were transfected with 100 ng of each DNA plasmid with DEAE Dextran. After 4 hours, PBS+10% DMSO was added for 2 minutes. Transfected COS cells were incubated in DMEM+10% FCS during 40 hours and then used to stimulate murine CTL in a TNFα secretion assay.
TNFα Secretion Assay. Transfected COS-7 cells at day 4 were suspended in […] of RPMI+10% FCS and used as stimulating cells. 5×10^4 murine T cells were then added in 50 μl RPMI 10% FCS and incubated for 6 hours. Each condition was tested in triplicate. 50 μl of the supernatant was collected to measure TNFα. Standard dilutions were prepared in 50 μl with final doses of TNFα ranging from 104 to 0 pg/ml. On both the supernatants and the standard dilutions, 3×10^4 TNFα sensitive WEHI-164c13 cells in 50 μl were added. They were incubated for 16 h at 37° C. Inhibition of cell proliferation was evaluated by the MTT colorimetric method (Espevik and Nissen-Meyer, 1986).

[4] = system: T2-B7 cells; assay: IFNγ intracellular staining of human CTL stimulated with peptide-loaded T2-B7 cells; assay type: cell-based; details: donor D5609, 4 pools; T2-B7 cells loaded with TERT444 or TERT444A1
Description: Generation of CTL from human PBMC. PBMC were collected by leukapheresis from healthy HLA-B*0702 volunteers. Dendritic cells (DC) were produced from adherent cells cultured for seven days (2×10^6 cells/ml) in the presence of 500 IU/ml GM-CSF and 500 IU/ml IL-4 (R&D Systems, Minneapolis, Minn.) in complete medium (RPMI-1640 supplemented with 10% heat inactivated human AB serum, […] L-Glutamine and antibiotics). On day seven, DC were pulsed with 10 μM peptides for 2 hrs; maturation agents Poly I:C (Sigma, Oakville, Canada) at 100 ng/ml and anti-CD40 mAb (clone G28-5, ATCC, Manassas, Va.) at 2 μg/ml were added in the culture and DCs were incubated at 37° C. overnight or up to 48 hours. Mature DC were then irradiated (3500 rads). CD8+ cells were purified by positive selection with CD8 MicroBeads (Miltenyi Biotec, Auburn, Calif.) according to the manufacturer's instructions. 2×10^5 CD8^+ cells+6×10^4 CD8^− cells were stimulated with 2×10^4 peptide pulsed DC in complete culture medium supplemented with 1000 IU/ml IL-6 and 5 IU/ml IL-12 (R&D Systems, Minneapolis, Minn.) in round-bottomed 96 well plates. From day seven, cultures were weekly restimulated with peptide-loaded DC in the presence of 20 IU/ml IL-2 (Proleukin, Chiron Corp., Emeryville, Calif.) and 10 ng/ml IL-7 (R&D Systems, Minneapolis, Minn.). […]

[5] = system: HLA-B*0702 transgenic mice; assay: CTL induction in vivo in HLA-B*0702 transgenic mice (immunogenicity, cytotoxic assay on peptide-loaded RMA-B7 targets); design: key: +: means that a specific immunoresponse was generated at least one HLA-B*0702 transgenic mice; details: Table IV
Description: as §1, §2, §3

[6] = system: HLA-B*0702 transgenic mice; assay: as above; design: key: + for immunogenicity or native peptide cross recognition means that the peptide induced a specific response in at least one HLA-B*0702 transgenic mouse, able to recognized the corresponding native peptide; details: Table V
Description: as §1, §2, §3

APRRLVQLL [TERT444A1]
Affinity for HLA-B*0702 (in words) [1]: strong affinity
RA ([1]; class symbols, Table IV): + (+ = 1 < RA < 10)
Corresponding native peptide cross-reconnaissance ([2]; CTL induced in HLA-B*0702 transgenic mice): +
Immunogenicity: specific CTL immune response (in words) ([2]; HLA-B*0702 transgenic mice): induced an immune response in the majority of vaccinated mice
Recognition of endogenous TERT by peptide-induced murine CTL [3]: recognized COS-7 cells transfected with both HLA-B*0702 and TERT but not COS-7 cells transfected with either HLA-B*0702 or TERT
Intracellular IFNg production by human CTL [4]: IFNg producing CTL were detected in pools 2 and 4
Immunogenicity [5]: +
Immunogenicity [6]: +

— patent US20170202936A1, “Identification, Optimization And Use Of Cryptic HLA-B7 Epitopes For Immunotherapy” (VAXON BIOTECH, priority 2006, published 2017)
